Assay results taken from article PMC9919311, “Catechol-O-methyltransferase Inhibitors from Calendula officinalis Leaf” (Molecules, 2023).
Read-outs that look alike come from different tables or passages of the source.

What was measured:
[1] = target: T1, Recombinant human COMT (Homo sapiens, UniProt P21964); experiment: COMT inhibitory assay (3-BTD fluorescent substrate); format: biochemical
T1 construct: made in house
T1 sequence (P21964 1-271): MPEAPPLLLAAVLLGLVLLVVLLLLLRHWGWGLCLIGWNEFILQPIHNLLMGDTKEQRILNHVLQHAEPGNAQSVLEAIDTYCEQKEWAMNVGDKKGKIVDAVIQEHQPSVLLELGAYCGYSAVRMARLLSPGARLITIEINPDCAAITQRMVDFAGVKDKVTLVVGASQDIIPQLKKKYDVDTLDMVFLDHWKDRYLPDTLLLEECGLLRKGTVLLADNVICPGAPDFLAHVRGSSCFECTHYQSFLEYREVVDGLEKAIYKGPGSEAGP

[2] = cited from earlier work
[3] = 1 µM COMT, 200 µM SAM, 20 µM 3-BTD, 0–100 µM inhibitor, pH 7.5, 37 °C, read-out: COMT inhibitory activities (IC50)

In the case of `COc1cc(-c2oc3cc(O)cc(O)c3c(=O)c2O[C@@H]2O[C@H](CO)[C@@H](O)[C@H](O)[C@H]2O)ccc1O` [Compound 2, isorhamnetin 3-O-β-glucoside], the IC50 [1, 3] is reported as 55 µM.

Molecule `CC1OC(OC2C(Oc3c(-c4ccc(O)c(O)c4)oc4cc(O)cc(O)c4c3=O)OC(CO)C(O)C2O)C(O)C(O)C1O` (stereo not drawn) [Compound 3, quercetin 3-O-β-neohesperidoside] has an IC50 [1] of 71 µM.

Molecule `CC1OC(OC2C(Oc3c(-c4ccc(O)c(O)c4)oc4cc(O)cc(O)c4c3=O)OC(COC(=O)CC(=O)O)C(O)C2O)C(O)C(O)C1O` (stereo not drawn) [Compound 4, quercetin 3-O-(2″-O-α-rhamnosyl-6″-O-malonyl)-β-glucoside] has an IC50 [1, 3] of 65 µM.

With `O=C(O)CC(=O)OC[C@H]1O[C@@H](Oc2c(-c3ccc(O)c(O)c3)oc3cc(O)cc(O)c3c2=O)[C@H](O)[C@@H](O)[C@@H]1O` [Compound 5, quercetin 3-O-(6″-O-malonyl)-β-glucoside] the IC50 [1, 3] was 59 µM.

In the case of `COC(=O)CC(=O)OC[C@H]1O[C@@H](Oc2c(-c3ccc(O)c(O)c3)oc3cc(O)cc(O)c3c2=O)[C@H](O)[C@@H](O)[C@@H]1O` [Compound 6], the IC50 [1, 3] is reported as 42 µM.

`COc1cc(-c2oc3cc(O)cc(O)c3c(=O)c2O[C@@H]2O[C@H](COC(=O)CC(=O)O)[C@@H](O)[C@H](O)[C@H]2O)ccc1O` [Compound 7, isorhamnetin 3-O-(6″-O-malonyl)-β-glucoside] gave an IC50 [1, 3] greater than 100 µM.

With `O=C(/C=C/c1ccc(O)c(O)c1)O[C@@H]1C[C@](O)(C(=O)O)C[C@@H](O)[C@H]1O` [Compound 8, chlorogenic acid] the IC50 [1, 3] was 100 µM.

In the case of `O=C(C=Cc1ccc(O)c(O)c1)OC1CC(O)(C(=O)O)CC(O)C1OC(=O)C=Cc1ccc(O)c(O)c1` (centres unmarked) [Compound 9, 3,4-dicaffeoylquinic acid], the IC50 [1, 3] is reported as 21 µM and the “COMT inhibitory activity (in words)” value ([1]; isolated compounds 1–10 compared) is reported as “highest inhibitory activity”.

Work on `COc1cc(C(=O)O)cc(OC)c1O` [Compound 10, syringic acid] yielded an IC50 [1, 3] greater than 100 µM.

For `Cc1ccc(C(=O)c2cc(O)c(O)c([N+](=O)[O-])c2)cc1` [Tolcapone], the hepatotoxicity [2] is listed as “severe hepatotoxicity”.
